{
  "source": "ChEMBL document CHEMBL5725610",
  "about": "“Phosphonate compounds” (2018)",
  "biological_target": "Protease (Human immunodeficiency virus 1, UniProt Q9YQ12)",
  "sequence (Q9YQ12 whole entry)": "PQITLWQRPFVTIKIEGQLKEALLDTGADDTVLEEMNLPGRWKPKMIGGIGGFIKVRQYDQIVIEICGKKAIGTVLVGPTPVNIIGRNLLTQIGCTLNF",
  "note": "pEC50: −log10 of the molar value.",
  "data": [
    {"smiles": "Nc1ncnc2c1ncn2CCOCP(=O)(O)O", "note": "[ADEFOVIR]", "values": [
      {"measurement": "pEC50", "result": 4.80}
    ]}
  ]
}
